Measured values published in publication PMC6930500, “Structure–Activity Relationships of 7-Substituted Dimethyltyrosine-Tetrahydroisoquinoline Opioid Peptidomimetics” (Molecules, 2019).

Tests used:
human MOR [1] = biological target: T1, human MOR (Homo sapiens, UniProt P35372); assay: [3H]-diprenorphine competitive displacement binding, MOR; conditions: membranes from CHO cells expressing human MOR; mean (SEM), n>=3 in duplicate
T1 construct: expressed in transfected cells; cell lines provided by Professor Lawrence Toll
Description: (§1) Each novel compound was evaluated for binding to and stimulation of KOR, MOR, and DOR. Binding affinity (Ki) was determined by competitive displacement of [^3H]-diprenorphine, a non-selective opioid receptor antagonist with similar affinity for each of the three receptors. Potency (EC50) and efficacy, expressed as percent stimulation compared to a standard agonist at each receptor, were determined by a [^35S]-GTPγS binding assay.
(§2) Membranes prepared from transfected Chinese Hamster Ovary cells stably expressing human KOR, human MOR, or human DOR were used for all assays. Cells were grown to confluence at 37 °C in 5% CO2 in 1:1 DMEM:F12 media with 10% v/v fetal bovine serum and 5% v/v penicillin/streptomycin. Membranes were prepared by washing confluent cells three times with ice cold phosphate-buffered saline (0.9% NaCl, 0.61 mM Na2HPO4, 0.38 mM KH2PO4, pH 7.4). Cells were detached from the plates by incubation in warm harvesting buffer (20 mM HEPES, 150 mM NaCl, 0.68 mM EDTA, pH 7.4) and pelleted by centrifugation at 200× g for 3 min. The cell pellet was suspended in ice-cold 50 mM Tris-HCl buffer, pH 7.4 and homogenized with a Tissue Tearor (Biospec Products, Inc, distributed by Cole-Parmer, Vernon Hills, IL, USA) for 20 s at setting 4. The homogenate was centrifuged at 20,000× g for 20 min at 4 °C, and the pellet was rehomogenized in 50 mM Tris-HCl pH 7.4 with a Tissue Tearor for 10 s at setting 2, followed by recentrifugation. The final pellet was resuspended in 50 mM Tris-HCl pH 7.4 and frozen in aliquots at −80 °C. Protein concentration was determined via Pierce BCA protein assay kit using bovine serum albumin as the standard.
(§3) Binding affinities for all test compounds at KOR, MOR, and DOR were determined by competitive displacement of [^3H]-diprenorphine as previously reported. In a 96-well plate format, cell membranes (5–10 µg of protein) and [^3H]-diprenorphine (0.2 nM) were incubated in Tris-HCl buffer (50 mM, pH 7.4) with various concentrations of test compound at 25 °C for 1 h, allowing the mixture to reach equilibrium. Nonspecific binding was determined using the opioid antagonist naloxone (10 µM), and total binding was determined using vehicle in the absence of competitive ligand. After incubation, membranes were filtered through Whatman GF/C 1.2 micron glass fiber filters and washed with 50 mM Tris-HCl buffer. The radioactivity remaining on the filters was then quantified by liquid scintillation counting after saturation with EcoLume liquid scintillation cocktail in a Microbeta 2450 (Perkin-Elmer, Waltham, MA, USA). Binding affinity (Ki) values were calculated using the Cheng–Prusoff equation via nonlinear regression analysis using GraphPad Prism software from at least three separate binding assays performed in duplicate.

human DOR [2] = biological target: T2, human DOR (Homo sapiens, UniProt P41143); assay: [3H]-diprenorphine competitive displacement binding, DOR; conditions: membranes from CHO cells expressing human DOR; mean (SEM), n>=3 in duplicate
T2 construct: expressed in transfected cells; cell lines provided by Professor Lawrence Toll
Description: as §1, §2, §3

human MOR [3] = biological target: T1, human MOR; assay: [35S]-GTPγS binding stimulation, MOR; type: biochemical; conditions: mean (SEM), * n = 2; for EC50: CHO-human MOR membranes, dns = does not stimulate, average maximal stimulation <10% at up to 10 µM; for Emax: versus 10 µM standard agonist DAMGO, dns = average maximal stimulation <10% at up to 10 µM
Description: as §1, §2
(§4) Agonist stimulation of KOR, MOR, and DOR by all test compounds was determined by [^35S]-guanosine 5′-O-[γ-thio]triphosphate ([^35S]-GTPγS) binding assays as previously reported. In a 96-well plate format, membranes from cells expressing opioid receptors as described above (10 µg of protein), [^35S]-GTPγS (0.1 nM), and guanosine diphosphate (30 µM) were incubated in GTPγS buffer (50 mM Tris-HCl, 100 mM NaCl, 5 mM MgCl2, 1 mM EDTA, pH 7.4) with various concentrations of test compound at 25 °C for 1 h. Basal stimulation was determined by incubation in the absence of any ligand. After incubation, membranes were filtered through Whatman GF/C 1.2 micron glass fiber filters and washed with GTPγS buffer with no EDTA. The radioactivity remaining on the filters was then quantified by liquid scintillation counting after saturation with EcoLume liquid scintillation cocktail in a Perkin-Elmer Microbeta 2450. Data are reported as percent stimulation compared to the effects of 10 µM standard agonists—U69,593 (KOR), DAMGO (MOR), or DPDPE (DOR). Percent stimulation and EC50 values were determined via nonlinear regression analysis using GraphPad Prism software from at least three separate assays performed in duplicate. Efficacy is expressed as percent stimulation relative to standard agonists.

human DOR [4] = biological target: T2, human DOR; assay: [35S]-GTPγS binding stimulation, DOR; type: biochemical; conditions: mean (SEM), * n = 2; for EC50 DOR: CHO-human DOR membranes, dns = does not stimulate, average maximal stimulation <10% at up to 10 µM; for % Stimulation DOR: versus 10 µM standard agonist DPDPE, dns = average maximal stimulation <10% at up to 10 µM
Description: as §1, §2, §4

human KOR [5] = biological target: T3, human KOR (Homo sapiens, UniProt P41145); assay: [3H]-diprenorphine competitive displacement binding, KOR; conditions: membranes from CHO cells expressing human KOR; mean (SEM), n>=3 in duplicate
T3 construct: expressed in transfected cells; cell lines provided by Professor Lawrence Toll
Description: as §1, §2, §3

human KOR [6] = biological target: T3, human KOR; assay: [35S]-GTPγS binding stimulation, KOR; type: biochemical; conditions: mean (SEM); for EC50: CHO-human KOR membranes, * n = 2, dns = does not stimulate, average maximal stimulation <10% at up to 10 µM; for Emax: versus 10 µM standard agonist U69,593, dns = average maximal stimulation <10% at up to 10 µM
Description: as §1, §2, §4

Cc1cc(O)cc(C)c1C[C@H](N)C(=O)N1CCc2ccc(Cc3cccc4cnccc34)cc2C1 [Compound 8s, (S)-2-amino-3-(4-hydroxy-2,6-dimethylphenyl)-1-(7-(isoquinolin-5-ylmethyl)-3,4-dihydroisoquinolin-2(1H)-yl)propan-1-one]
Ki (human MOR [1]): 9.7 nM | Ki (human DOR [2]): 1.2 nM | EC50 (human MOR [3]): 43 nM | Emax (human MOR [3]): 28% | EC50 DOR (human DOR [4]): dns | % Stimulation DOR (human DOR [4]): dns | Ki (human KOR [5]): 10 nM | EC50 (human KOR [6]): 609 nM | Emax (human KOR [6]): 24%

Cc1cc(O)cc(C)c1C[C@H](N)C(=O)N1CCc2ccc(CN3CCc4ccccc43)cc2C1 [Compound 8y, (S)-2-amino-3-(4-hydroxy-2,6-dimethylphenyl)-1-(7-(indolin-1-ylmethyl)-3,4-dihydroisoquinolin-2(1H)-yl)propan-1-one]
Ki (human MOR [1]): 2.2 nM | Ki (human DOR [2]): 1.7 nM | EC50 (human MOR [3]): 42 nM | Emax (human MOR [3]): 65% | EC50 DOR (human DOR [4]): dns * | % Stimulation DOR (human DOR [4]): dns * | Ki (human KOR [5]): 2.6 nM | EC50 (human KOR [6]): 106 nM | Emax (human KOR [6]): 66%
